Test results: patent publication US9248117B2, “Substituted N,N-dihaloamines as antimicrobials” (priority 2010, dated 2016)
Converted amounts (≈) assume the structure as drawn.

What was measured:
[1] = test system: L929 cells; experiment: CT50 cytotoxicity in L929 cells; conditions: pH 7 phosphate; Table 3
[2] = test system: E. coli 25922; experiment: MBC/MFC against E. coli 25922; format: cell-based; conditions: Escherichia coli, Table 3
[3] = test system: S. aureus 29213; experiment: MBC/MFC against S. aureus 29213; format: cell-based; conditions: Staphylococcus aureus, Table 3
[4] = test system: C. albicans 10231; experiment: MBC/MFC against C. albicans 10231; format: cell-based; conditions: Candida albicans, Table 3

SMILES	CT50 L929 cells [1] [mM]	MBC ([2]; pH 4 acetate) [µg/mL]	MBC ([2]; pH 7 phosphate) [µg/mL]	MBC ([3]; pH 4 acetate) [µg/mL]	MBC ([3]; pH 7 phosphate) [µg/mL]	MFC ([4]; pH 4 acetate) [µg/mL]	MFC ([4]; pH 7 phosphate) [µg/mL]
COCCOCCOCCS(=O)(=O)CC(C)(C)N(Cl)Cl [Compound 38-01, dichloro[1-({2-[2-(2-methoxyethoxy)ethoxy]ethane}sulfonyl)-2-methylpropan-2-yl]amine]	0.06	2 (≈ 5.68 µM)	256 (≈ 727 µM)	2 (≈ 5.68 µM)	256 (≈ 727 µM)	32 (≈ 90.8 µM)	> 512
CC(C)(CCS(=O)(=O)CCO)N(Cl)Cl [Compound 38-25, 2-(3-(Dichloroamino)-3-methylbutylsulfonyl)ethanol]	–	0.5 (≈ 1.89 µM)	8 (≈ 30.3 µM)	1 (≈ 3.79 µM)	16 (≈ 60.6 µM)	16 (≈ 60.6 µM)	512 (≈ 1940 µM)
CC(C)(CCS(=O)(=O)CC(O)CO)N(Cl)Cl (stereo not shown) [Compound 38-27, 3-(3-(Dichloroamino)-3-methylbutylsulfonyl)propane-1,2-diol]	0.13	2 (≈ 6.8 µM)	16 (≈ 54.4 µM)	2 (≈ 6.8 µM)	4 (≈ 13.6 µM)	> 256	> 1020
CC(C)(CCS(=O)(=O)CC(O)C(O)CO)N(Cl)Cl (stereo not shown) [Compound 38-29, 4-(3-(Dichloroamino)-3-methylbutylsulfonyl)butane-1,2,3-triol]	–	2 (≈ 6.17 µM)	128 (≈ 395 µM)	1 (≈ 3.08 µM)	32 (≈ 98.7 µM)	256 (≈ 790 µM)	> 1020
COCC[N+](C)(C)CCC(C)(C)N(Cl)Cl.[Cl-] [Compound 38-43, 3-(dichloroamino)-N-(2-methoxyethyl)-N,N,3-trimethylbutan-1-aminium chloride]	1.2	2	1020	1	512	32	> 2050
COCCOCCOCC[N+](C)(C)CCC(C)(C)N(Cl)Cl [Compound 38-45, 3-(dichloroamino)-N-(2-(2-(2-methoxyethoxy)ethoxy)ethyl)-N,N,3-trimethylbutan-1-aminium 4-methylbenzenesulfonate]	3.2	4	1020	4	1020	64	> 2050
CC(=O)OCC(O)CS(=O)(=O)CCC(C)(C)N(Cl)Cl (stereo not shown) [Compound 38-49, 3-(3-(Dichloroamino)-3-methylbutylsulfonyl)-2-hydroxypropyl acetate]	–	2	64	4	32	16	> 512
CC(=O)OCC(CS(=O)(=O)CCC(C)(C)N(Cl)Cl)OC(C)=O (stereo not shown) [Compound 38-51, 3-(3-(Dichloroamino)-3-methylbutylsulfonyl)propane-1,2-diyl diacetate]	–	1	128	2	128	16	128
CC(C)(CCS(=O)(=O)CCOCCOCCS(=O)(=O)O)N(Cl)Cl [Compound 38-81, 2-(2-(2-(3-(dichloroamino)-3-methylbutylsulfonyl)ethoxy)ethoxy) ethanesulfonic acid]	2.13	2 (≈ 4.8 µM)	32 (≈ 76.9 µM)	4 (≈ 9.61 µM)	256 (≈ 615 µM)	128 (≈ 307 µM)	> 2050
CC(C)(CCS(=O)(=O)CCOCCS(=O)(=O)O)N(Cl)Cl [Compound 38-83, 2-(2-(3-(dichloroamino)-3-methylbutylsulfonyl)ethoxy)ethanesulfonic acid]	1.74	2 (≈ 5.37 µM)	128 (≈ 344 µM)	1 (≈ 2.69 µM)	256 (≈ 688 µM)	128 (≈ 344 µM)	> 1020
CC(C)(CCS(=O)(=O)CCOCCOCCO)N(Cl)Cl [Compound 38-85, 2-(2-(2-(3-(Dichloroamino)-3-methylbutylsulfonyl)ethoxy)ethoxy)ethanol]	0.04	4 (≈ 11.4 µM)	64 (≈ 182 µM)	4 (≈ 11.4 µM)	64 (≈ 182 µM)	32 (≈ 90.8 µM)	> 1020
CC(=O)OCCOCCOCCS(=O)(=O)CCC(C)(C)N(Cl)Cl [Compound 38-87, 2-(2-(2-(3-(Dichloroamino)-3-methylbutylsulfonyl)ethoxy)ethoxy)ethyl acetate]	–	4	128	4	128	32	512
CCOCCOCCOCCS(=O)(=O)CCC(C)(C)N(Cl)Cl [Compound 38-89, N,N-dichloro-4-(2-(2-(2-ethoxyethoxy)ethoxy)ethylsulfonyl)-2-methylbutan-2-amine]	0.06	8 (≈ 21 µM)	256 (≈ 673 µM)	8 (≈ 21 µM)	128 (≈ 337 µM)	4 (≈ 10.5 µM)	512 (≈ 1350 µM)
CC(C)(C)OCCOCCOCCS(=O)(=O)CCC(C)(C)N(Cl)Cl [Compound 38-91, N,N-dichloro-4-(2-(2-(2-tert-butoxyethoxy)ethoxy)ethylsulfonyl)-2-methylbutan-2-amine]	–	8 (≈ 19.6 µM)	> 256	4 (≈ 9.79 µM)	128 (≈ 313 µM)	16 (≈ 39.2 µM)	128 (≈ 313 µM)
CCCCOCC[N+](C)(C)CCC(C)(C)N(Cl)Cl.[Cl-] [Compound 38-133, N-(2-butoxyethyl)-3-(dichloroamino)-N,N,3-trimethylbutan-1-aminium chloride]	0.26	8	128	8	128	64	1020
CCCCCCOCC[N+](C)(C)CCC(C)(C)N(Cl)Cl.Cc1ccc(S(=O)(=O)[O-])cc1 [Compound 38-135, 3-(dichloroamino)-N-(2-(hexyloxy)ethyl)-N,N,3-trimethylbutan-1-aminium 4-methylbenzenesulfonate]	0.08	8	256	2	512	32	> 1020
COCCC[N+](C)(C)CCC(C)(C)N(Cl)Cl [Compound 38-137, 3-(dichloroamino)-N-(3-methoxypropyl)-N,N,3-trimethylbutan-1-aminium chloride]	1.62	8	512	4	> 1020	32	> 1020
CO[C@H]1O[C@H](CS(=O)(=O)CCC(C)(C)N(Cl)Cl)[C@@H](O)[C@H](O)[C@H]1O [Compound 38-141, (2S,3S,4S,5R,6S)-2-(((3-(dichloroamino)-3-methylbutyl)sulfonyl)methyl)-6-methoxytetrahydro-2H-pyran-3,4,5-triol]	–	8 (≈ 20.2 µM)	512 (≈ 1290 µM)	8 (≈ 20.2 µM)	256 (≈ 646 µM)	16 (≈ 40.4 µM)	> 1020
CC(C)(CCS(=O)(=O)C(CO)C(O)CO)N(Cl)Cl (stereo not shown) [Compound 38-145, 3-(3-(Dichloroamino)-3-methylbutylsulfonyl)butane-1,2,4-triol]	–	2 (≈ 6.17 µM)	64 (≈ 197 µM)	2 (≈ 6.17 µM)	16 (≈ 49.3 µM)	64 (≈ 197 µM)	1020 (≈ 3160 µM)
COCCOCCOCCOCCS(=O)(=O)CCC(C)(C)N(Cl)Cl [Compound 38-147, N,N-dichloro-2-methyl-4-(2-(2-(2-(2-methoxyethoxy)ethoxy)ethoxy)ethylsulfonyl)butan-2-amine]	0.039	8 (≈ 19.5 µM)	256 (≈ 624 µM)	8 (≈ 19.5 µM)	128 (≈ 312 µM)	> 256	2050 (≈ 4990 µM)
CC(C)(CC[N+](C)(C)CCCO)N(Cl)Cl [Compound 38-151, 3-(dichloroamino)-N-(3-hydroxypropyl)-N,N,3-trimethylbutan-1-aminium]	0.12	4	1020	4	> 2050	64	> 1020
